Results reported in patent US20230117034A1, “PYRAZOLOTRIAZINES” (Bayer Aktiengesellschaft, priority 2019, published 2023).
Like-named read-outs stand apart in the source and are kept apart here.

Assays:
CDK9/CycT1 = molecular target: T1, CDK9/CycT1 (Homo sapiens, UniProt P50750); assay: CDK9/CycT1 high ATP kinase assay (TR-FRET, 2 mM ATP); type: biochemical; settings: 2 mM ATP (high ATP); median; read-out: CDK9/CyclinT1, 2 mM ATP (high ATP), IC50 (median)
T1 construct: Recombinant full-length His-tagged human CDK9 and CycT1; purchased Life Technologies PV4131; host or cells: insect cells
Outline: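 Full-length His-tagged human CDK9/CycT1 (insect cell, ~0.5 μg/mL) preincubated 15 min at 22 °C with compound in Tris pH 8.0, MgCl2, DTT buffer before reaction with biotinylated peptide substrate at high ATP (2 mM).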

[1] = test system: BRCA1 mRNA expression in MDA-MB-231 cells; assay: qRT-PCR assay: BRCA1 mRNA expression in MDA-MB-231; type: cell-based, human; settings: median, read-out: RTqPCR-MDA-MB-231, IC50, BRCA1 (median)
Outline: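 BRCA1 transcript by RT-qPCR relative to GAPDH, from 600 ng RNA converted to cDNA. MDA-MB-231 cells plated at 200,000/well received test compound continuously for 24 h, starting 24 h post-seeding.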

[2] = test system: MDA-MB-231, human breast cancer cells; assay: Proliferation assay MDA-MB-231 (crystal violet, 4 days); type: cell-based; settings: MDA-MB-231 cells, median, read-out: Prolif-MDA MB-231, IC50-[mol/l] (median)
Outline: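 IC50 from a 4-parameter fit of crystal violet absorbance (595 nm), scaled between the day-of-dosing plate (0%) and vehicle cells (100%). MDA-MB-231 or CAL-120 cells were treated for 4 days with 0.01–10 micromol/L compound in 0.1% DMSO after 24 h attachment.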

[3] = Homo sapiens, MDA-MB-231, Inhibition of BRCA1 mRNA expression in MDA-MB-231 cells

T1 sequence (P50750 whole entry): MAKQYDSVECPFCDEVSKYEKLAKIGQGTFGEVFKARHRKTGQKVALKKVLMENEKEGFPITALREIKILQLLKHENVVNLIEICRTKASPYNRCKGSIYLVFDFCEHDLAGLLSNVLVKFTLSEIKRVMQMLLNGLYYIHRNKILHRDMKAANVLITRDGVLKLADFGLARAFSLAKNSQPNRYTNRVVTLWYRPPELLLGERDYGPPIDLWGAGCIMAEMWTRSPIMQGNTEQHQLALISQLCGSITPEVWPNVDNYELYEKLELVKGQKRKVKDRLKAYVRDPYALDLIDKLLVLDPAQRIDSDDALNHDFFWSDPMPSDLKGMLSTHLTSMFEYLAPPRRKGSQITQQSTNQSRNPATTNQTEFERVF
T1 sequence (O60563 whole entry partner): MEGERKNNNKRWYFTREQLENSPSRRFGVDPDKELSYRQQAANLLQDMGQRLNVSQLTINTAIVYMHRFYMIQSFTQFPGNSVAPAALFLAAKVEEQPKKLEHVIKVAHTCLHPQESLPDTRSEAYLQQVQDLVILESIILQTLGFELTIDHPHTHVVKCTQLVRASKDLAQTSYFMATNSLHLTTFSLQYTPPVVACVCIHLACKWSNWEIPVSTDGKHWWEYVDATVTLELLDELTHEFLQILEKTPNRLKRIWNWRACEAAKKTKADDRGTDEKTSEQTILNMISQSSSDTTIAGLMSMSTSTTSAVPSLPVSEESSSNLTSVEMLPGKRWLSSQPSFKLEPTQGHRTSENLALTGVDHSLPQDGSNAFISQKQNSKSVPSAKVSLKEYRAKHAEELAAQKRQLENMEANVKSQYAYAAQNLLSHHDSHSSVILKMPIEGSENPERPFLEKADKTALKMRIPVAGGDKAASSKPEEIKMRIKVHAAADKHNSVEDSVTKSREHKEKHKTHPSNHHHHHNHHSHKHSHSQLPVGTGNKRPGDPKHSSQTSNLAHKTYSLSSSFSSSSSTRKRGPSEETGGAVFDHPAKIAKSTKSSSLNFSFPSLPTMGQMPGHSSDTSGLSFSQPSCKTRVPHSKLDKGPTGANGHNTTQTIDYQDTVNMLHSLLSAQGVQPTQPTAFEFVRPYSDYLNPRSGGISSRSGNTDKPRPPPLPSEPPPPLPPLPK

| IC50 (CDK9/CycT1) [nM] | IC50 [1, 3] [nM] | IC50 ([2]; Homo sapiens, MDA-MB-231, 96 h) [nM] | Structure (SMILES) | IC50 ([1]; Inhibition of BRCA1 mRNA expression in MDA-MB-231 cells) [nM] | IC50 [2] [nM] |
| --- | --- | --- | --- | --- | --- |
| 1290 | 31.6 | 43.8 | Fc1cccc(-c2nnc(CNc3nc(N4CCOCC4)nc4c(C(F)(F)F)cnn34)[nH]2)c1 [Example 385, N-{[5-(3-fluorophenyl)-4H-1,2,4-triazol-3-yl]methyl}-2-(morpholin-4-yl)-8-(trifluoromethyl)pyrazolo[1,5-a][1,3,5]triazin-4-amine] |  |  |
| 7130 | 3.28 | 15.2 | CN(CC(C)(C)O)c1nc(NCc2nc3c(F)c(F)ccc3[nH]2)n2ncc(Cl)c2n1 [Example 359, 1-[(8-chloro-4-{[(4,5-difluoro-1H-benzimidazol-2-yl)methyl]amino}pyrazolo[1,5-a][1,3,5]triazin-2-yl)(methyl)amino]-2-methylpropan-2-ol] |  |  |
| 13800 | 9.02 | 23.2 | Fc1cccc2[nH]c(CNc3nc(N4CCOCC4)nc4c(Cl)cnn34)nc12 [Example 361, 8-chloro-N-[(4-fluoro-1H-benzimidazol-2-yl)methyl]-2-(morpholin-4-yl)pyrazolo[1,5-a][1,3,5]triazin-4-amine] |  |  |
| 10000 | 6.05 | 10.4 | Fc1ccc2[nH]c(CNc3nc(N4CCOCC4)nc4c(Cl)cnn34)nc2c1F [Example 357] |  |  |
| > 20000 | 61.6 | 93.9 | Brc1cnn2c(NCc3nc4ccccc4[nH]3)nc(N3CC4CCC(C3)O4)nc12 [Example 351, N-[(1H-benzimidazol-2-yl)methyl]-8-bromo-2-(8-oxa-3-azabicyclo[3.2.1]octan-3-yl)pyrazolo[1,5-a][1,3,5]triazin-4-amine] |  |  |
| 749 | 9.16 | 20.2 | Fc1cc(F)cc(-c2nnc(CNc3nc(N4CCOCC4)nc4c(C(F)(F)F)cnn34)[nH]2)c1 [Example 386, N-{[5-(3,5-difluorophenyl)-4H-1,2,4-triazol-3-yl]methyl}-2-(morpholin-4-yl)-8-(trifluoromethyl)pyrazolo[1,5-a][1,3,5]triazin-4-amine] |  |  |
| 1640 | 2.6 | 3.62 | CN(CC(C)(C)O)c1nc(NCc2nc3c(F)c(Cl)ccc3[nH]2)n2ncc(Br)c2n1 [Example 374, 1-[(8-bromo-4-{[(5-chloro-4-fluoro-1H-benzimidazol-2-yl)methyl]amino}pyrazolo[1,5-a][1,3,5]triazin-2-yl)(methyl)amino]-2-methylpropan-2-ol] |  |  |
| > 20000 | 26.4 | 33.5 | CN1CCN(c2nc(NCc3nc4c(F)cccc4[nH]3)n3ncc(Cl)c3n2)CC1.O=CO [Example 362, formic acid 8-chloro-N-[(4-fluoro-1H-benzimidazol-2-yl)methyl]-2-(4-methylpiperazin-1-yl)pyrazolo[1,5-a][1,3,5]triazin-4-amine] |  |  |
| > 20000 | 5.63 | 7.18 | Fc1c(Cl)ccc2[nH]c(CNc3nc(N4CCOCC4)nc4c(C5CC5)cnn34)nc12 [Example 370, N-[(5-chloro-4-fluoro-1H-benzimidazol-2-yl)methyl]-8-cyclopropyl-2-(morpholin-4-yl)pyrazolo[1,5-a][1,3,5]triazin-4-amine] |  |  |

The remaining lines, values behind:

| Structure (SMILES) | IC50 (CDK9/CycT1) [nM] | IC50 [1, 3] [nM] | IC50 ([2]; Homo sapiens, MDA-MB-231, 96 h) [nM] | IC50 ([1]; Inhibition of BRCA1 mRNA expression in MDA-MB-231 cells) [nM] | IC50 [2] [nM] |
| --- | --- | --- | --- | --- | --- |
| Cc1ccnc2[nH]c(CNc3nc(N4CCOCC4)nc4c(C(C)C)cnn34)nc12 [Example 28, N-[(7-methyl-3H-imidazo[4,5-b]pyridin-2-yl)methyl]-2-(morpholin-4-yl)-8-(propan-2-yl)pyrazolo[1,5-a][1,3,5]triazin-4-amine] | > 20000 | 13.3 | 74.5 |  |  |
| Fc1cc2nc(CNc3nc(N4CCOCC4)nc4c(Br)cnn34)[nH]c2cc1F [Example 341, 8-bromo-N-[(5,6-difluoro-1H-benzimidazol-2-yl)methyl]-2-(morpholin-4-yl)pyrazolo[1,5-a][1,3,5]triazin-4-amine] | 17400 | 5.13 | 3.73 |  |  |
| CN1CCN(c2nc(NCc3nc4cc(C(F)(F)F)ccc4[nH]3)n3ncc(Br)c3n2)CC1 [Example 344, 8-bromo-2-(4-methylpiperazin-1-yl)-N-{[5-(trifluoromethyl)-1H-benzimidazol-2-yl]methyl}pyrazolo[1,5-a][1,3,5]triazin-4-amine] | > 20000 | 2.34 | 4.82 |  |  |
| Cc1cc2nc(CNc3nc(N4CC5CCC(C4)N5)nc4c(C5CC5)cnn34)[nH]c2cc1C [Example 326, 8-cyclopropyl-2-(3,8-diazabicyclo[3.2.1]octan-3-yl)-N-[(5,6-dimethyl-1H-benzimidazol-2-yl)methyl]pyrazolo[1,5-a][1,5]triazin-4-amine] | 17000 | 1.63 | 1.57 |  |  |
| CN(CC(C)(C)O)c1nc(NCc2nc3cc(F)c(F)cc3[nH]2)n2ncc(C3CC3)c2n1 [Example 319, 1-[(8-cyclopropyl-4-{[(5,6-difluoro-1H-benzimidazol-2-yl)methyl]amino}pyrazolo[1,5-a][1,3,5]triazin-2-yl)(methyl)amino]-2-methylpropan-2-ol] | > 20000 | 9.97 | 4.76 |  |  |
| Fc1c(Cl)ccc2[nH]c(CNc3nc(N4CC5CCC(C4)N5)nc4c(Br)cnn34)nc12 [Example 380, 8-bromo-N-[(5-chloro-4-fluoro-1H-benzimidazol-2-yl)methyl]-2-(3,8-diazabicyclo[3.2.1]octan-3-yl)pyrazolo[1,5-a][1,3,5]triazin-4-amine] | 5930 | 1 | 2.19 |  |  |
| CC(C)c1cnn2c(NCc3ncc(-c4ccccc4)[nH]3)nc(N3CCN(C)CC3)nc12 [Example 31, 2-(4-methylpiperazin-1-yl)-N-[(5-phenyl-1H-imidazol-2-yl)methyl]-8-(propan-2-yl)pyrazolo[1,5-a][1,3,5]triazin-4-amine] | > 20000 | 15 | 49.8 |  |  |
| Fc1ccc(-c2nnc(CNc3nc(N4CCOCC4)nc4c(Br)cnn34)[nH]2)cc1 [Example 29, 8-bromo-N-{[5-(4-fluorophenyl)-4H-1,2,4-triazol-3-yl]methyl}-2-(morpholin-4-yl)pyrazolo[1,5-a][1,3,5]triazin-4-amine] | 2400 | 21.2 | 89.9 |  |  |
| CN1CCN(c2nc(NCc3nc4cc(F)c(F)cc4[nH]3)n3ncc(Br)c3n2)CC1 [Example 346, 8-bromo-N-[(5,6-difluoro-1H-benzimidazol-2-yl)methyl]-2-(4-methylpiperazin-1-yl)pyrazolo[1,5-a][1,3,5]triazin-4-amine] | > 20000 | 3.02 | 4.67 |  |  |
| Fc1cc2nc(CNc3nc(N4C[C@H]5CC[C@@H](C4)N5)nc4c(C5CC5)cnn34)[nH]c2cc1Cl [Example 328, N-[(6-chloro-5-fluoro-1H-benzimidazol-2-yl)methyl]-8-cyclopropyl-2-[(1R,5S)-3,8-diazabicyclo[3.2.1]octan-3-yl]pyrazolo[1,5-a][1,3,5]triazin-4-amine] | 15000 | 2.78 | 1.04 |  |  |
| CN(CC(C)(C)O)c1nc(NCc2nc3cc(C(F)(F)F)ccc3[nH]2)n2ncc(C3CC3)c2n1 [Example 323, 1-{[8-cyclopropyl-4-({[5-(trifluoromethyl)-1H-benzimidazol-2-yl]methyl}amino)pyrazolo[1,5-a][1,3,5]triazin-2-yl](methyl)amino}-2-methylpropan-2-ol] | > 20000 | 16.9 | 8.76 |  |  |
| Fc1cc2nc(CNc3nc(N4CC5CCC(C4)N5)nc4c(Br)cnn34)[nH]c2cc1F [Example 355, 8-bromo-2-(3,8-diazabicyclo[3.2.1]octan-3-yl)-N-[(5,6-difluoro-1H-benzimidazol-2-yl)methyl]pyrazolo[1,5-a][1,3,5]triazin-4-amine] | > 20000 | 1.41 | 3.2 |  |  |
| CN1CCN(c2nc(NCc3nc4cc(Cl)c(Cl)cc4[nH]3)n3ncc(Br)c3n2)CC1 [Example 330, 8-bromo-N-[(5,6-dichloro-1H-benzimidazol-2-yl)methyl]-2-(4-methylpiperazin-1-yl)pyrazolo[1,5-a][1,3,5]triazin-4-amine] | > 20000 | 5.68 | 3.38 |  |  |
| Brc1cnn2c(NCc3nc4ccccc4[nH]3)nc(N3C[C@H]4CC[C@@H]3CN4)nc12 (single isomer, unassigned) [Example 335, N-[(1H-benzimidazol-2-yl)methyl]-8-bromo-2-{[1R or S-(1R*,4R*)]-2,5-diazabicyclo[2.2.2]octan-2-yl}pyrazolo[1,5-a][1,3,5]triazin-4-amine] | > 20000 |  |  | 12.7 | 10.5 |
| Fc1cccc2[nH]c(CNc3nc(N4CC5CCC(C4)N5)nc4c(Cl)cnn34)nc12 [Example 363, 8-chloro-2-(3,8-diazabicyclo[3.2.1]octan-3-yl)-N-[(4-fluoro-1H-benzimidazol-2-yl)methyl]pyrazolo[1,5-a][1,3,5]triazin-4-amine] | > 20000 | 22.5 | 34.6 |  |  |
